Bridge positions count the residues as written; N and C are the ends. Square brackets hold non-standard residues; d marks the D form. Peptide text beside a SMILES is read from it. NMeL = CN[C@@H](CC(C)C)C(=O)O; Phg = N[C@H](C(=O)O)c1ccccc1; Orn = NCCC[C@H](N)C(=O)O; Aib = CC(C)(N)C(=O)O
molecular target: ACA-6501; experiment: Competitive binding peptide ACA ELISA, cardiolipin/β2-GPI-coated plates; parameters: species or system human; conditions: Optimization of Peptide 3G3; inf = no 50% inhibition
Protocol: A variation of this assay uses microtitration plates coated with human β2-glycoprotein I/cardiolipin (β2-GPI/CL) instead of tetravalent peptide and tests the ability of monomeric peptides to block the binding of aPL antibody to the epitope(s) on β2-GPI/CL. In this assay, IgG-depleted human serum at an optimized concentration is used as a source of β2-GPI. The monomeric peptides at several concentrations are incubated with an optimized concentration of aPL antibody in a manner analogous to the assay which employs tetravalent peptide as a plate substrate. Following the incubation of aPL/peptide in (β2-GPI/CL) plates, antibody binding and the peptide concentration required for 50% inhibition is determined at half-maximal absorbance as in the tetravalent assay.
Peptide sequences for all five peptides immediately follow the table. All were tested using the competitive binding peptide ACA ELISA using CL/β2-GPI plates as described herein.
(B) Immulon I® 96-well, flat-bottom, polystyrene microtitration plates (Dynatech Laboratories, Inc., Chantilly, Va.) were coated with 30 μL/well of cardiolipin (CL, 50 μg; Sigma Chemical Co., St. Louis, Mo.) in ethanol. Two control wells received 30 μL ethanol only. After overnight evaporation at 4° C., each well was blocked with 200 μL of 5% (w/v) fish gelatin in PBS for 2 hours at RT.
During this incubation, variable amounts of each of six peptides were mixed with 22 μL ACA-6501 serum diluted with 3% fish gelatin in 1:1 TBS/PBS (final dilution of 1:400) in a final volume of 220 μL using Eppendorf microcentrifuge tubes. Specifically, in tube #1 were mixed 181.3 μL of 3% fish gelatin in TBS-PBS, 16.7 μL of peptide stock solution plus 22 μL of ACA-6501 serum diluted 40 times in 3% fish gelatin/TBS-PBS. Stock solutions ranged from 450-800 μg/mL for peptides #951 (diserine non-cyclized negative control), #952 (a lot of LJP 690), and thioethers CCTE-3G3, CHTE-3G3, HCTE-3G3 and HHTE-3G3. To tube #2 the following were added: 148 μL fish gelatin/TBS-PBS, […] of peptide stock solution, plus 22 μL of 40 times diluted ACA-6501 serum. Tube #3 contained 48 μL fish gelatin/TBS-PBS, […] of peptide stock solution, plus 22 μL of 40 times diluted ACA-6501 serum. The control tube #4 received 396 μL fish gelatin/TBS-PBS and 44 μL of 40 times diluted ACA-6501 serum (no peptide). Each of the tubes incubated for approximately 1 hour at RT.
The CL/β2-GPI microtitration plate was washed 5 times with TBS and 100 μL aliquots in duplicate from Eppendorf tubes #1, 2, 3, and 4 containing the antibody-peptide (or no peptide mixtures) were added to the wells. A volume of 100 μL from tube #4 was added to the duplicate control wells containing no cardiolipin. The microtitration plate was incubated for 1 hour at RT with agitation at 40 rpm in an orbital shaker (American Scientific, Rotator V), washed 5 times with TBS and then 100 μL of 1:1000 goat anti-human IgG alkaline phosphatase conjugate (Zymed, Cat No. 62-8422) in 0.5% (w/v) BSA-TBS was added. Following incubation for 1 hour at RT, the microtitration plate was again washed 5 times with TBS and the colorimetric enzyme detection developed by adding 100 μL of PMPP solution (7.8 g phenolphthalein monophosphate plus 69.5 g of 2-amino-2-methyl-1-propanol in 100 mL water stock solution diluted 1:26 with water). After 21 minutes, the reaction was stopped by adding 50 μL of 0.2 M Na2HPO4 (Mallinckrodt) to each well. Absorbance at 550 nm was read in a microplate reader (Bio-Tek Instruments, Model EL 311). The amount of peptide that inhibited ACA-6501 binding by 50%, the IC50, was calculated from the graph at the intersection of half-maximal absorbance with amount of peptide added.

| Compound | with ACA 6501 150 ug/mL |
| --- | --- |
| CC(C)C[C@@H]1NC(=O)[C@@H](NC(=O)[C@@H]2CCCN2C(=O)CNC(=O)[C@H](C)N)CSSC[C@@H](C(=O)NCC(=O)O)NC(=O)[C@H](CC(C)C)NC(=O)[C@H](CCCCN)NC(=O)CNC(=O)[C@H](CC(C)C)NC(=O)[C@H](C(C)C)NC(=O)CNC1=O [A G P C L G V L G K L C G] (H-AGPCLGVLGKLCG-OH; disulfide 4-12) | 450 µg/mL |
| CC(C)C[C@@H]1NC(=O)[C@H](CCCCN)NC(=O)CNC(=O)[C@H](CC(C)C)NC(=O)[C@H](C(C)C)NC(=O)CNC(=O)[C@H](C)NC(=O)[C@@H](N)CSSC[C@@H](C(=O)O)NC1=O [C A G V L G K L C] (H-CAGVLGKLC-OH; disulfide 1-9) | 200 µg/mL |
| CC(C)C[C@@H]1NC(=O)[C@H](CCCCN)NC(=O)CNC(=O)[C@H](CC(C)C)NC(=O)[C@H](C(C)C)NC(=O)CNC(=O)CNC(=O)[C@@H](N)CSSC[C@@H](C(=O)O)NC1=O [C G G V L G K L C] (H-CGGVLGKLC-OH; disulfide 1-9) | 310 µg/mL |
| CC[C@H](C)[C@@H]1NC(=O)[C@@H](N)CSSC[C@@H](C(=O)O)NC(=O)[C@H](CC(C)C)NC(=O)[C@H](CCCCN)NC(=O)CNC(=O)[C@H](CC(C)C)NC(=O)[C@H](C(C)C)NC(=O)CNC1=O [C I G V L G K L C] (H-CIGVLGKLC-OH; disulfide 1-9) | 60 µg/mL |
| CC(C)C[C@@H]1NC(=O)[C@H](CCCCN)NC(=O)CNC(=O)[C@H](CC(C)C)NC(=O)[C@H](C(C)C)NC(=O)[C@H](C)NC(=O)[C@H](CC(C)C)NC(=O)[C@@H](N)CSSC[C@@H](C(=O)O)NC1=O [C L A V L G K L C] (H-CLAVLGKLC-OH; disulfide 1-9) | 170 µg/mL |
| CC(C)C[C@@H]1NC(=O)[C@H](C)NC(=O)CNC(=O)[C@H](CC(C)C)NC(=O)[C@@H](N)CSSC[C@@H](C(=O)O)NC(=O)[C@H](CC(C)C)NC(=O)[C@H](CCCCN)NC(=O)CNC1=O [C L G A L G K L C] (H-CLGALGKLC-OH; disulfide 1-9) | 260 µg/mL |
| CC(C)C[C@@H]1NC(=O)[C@H](CCCCN)NC(=O)CNC(=O)[C@H](CC(C)C)NC(=O)[C@@H]2CCCN2C(=O)CNC(=O)[C@H](CC(C)C)NC(=O)[C@@H](N)CSSC[C@@H](C(=O)O)NC1=O [C L G P L G K L C] (H-CLGPLGKLC-OH; disulfide 1-9) | 180 µg/mL |
| CC(C)C[C@@H]1NC(=O)[C@H](C(C)C)NC(=O)CNC(=O)[C@H](CC(C)C)NC(=O)[C@@H](N)CSSC[C@@H](C(=O)O)NC(=O)[C@H](C)NC(=O)[C@H](CCCCN)NC(=O)CNC1=O [C L G V L G K A C] (H-CLGVLGKAC-OH; disulfide 1-9) | 360 µg/mL |
| CC(C)C[C@@H]1NC(=O)[C@H](C(C)C)NC(=O)CNC(=O)[C@H](CC(C)C)NC(=O)[C@@H](N)CSSC[C@@H](C(=O)O)NC(=O)CNC(=O)[C@H](CCCCN)NC(=O)CNC1=O [C L G V L G K G C] (H-CLGVLGKGC-OH; disulfide 1-9) | 500 µg/mL |
| CC(C)C[C@@H]1NC(=O)[C@H](CCCCN)NC(=O)CNC(=O)[C@H](CC(C)C)NC(=O)[C@H](C(C)C)NC(=O)CNC(=O)[C@H](CC(C)C)NC(=O)[C@@H](N)CSSC[C@@H](C(=O)N2CCC[C@H]2C(=O)NCC(=O)O)NC1=O [C L G V L G K L C P G] (H-CLGVLGKLCPG-OH; disulfide 1-9) | 460 µg/mL |
| CC(C)C[C@@H]1NC(=O)[C@H](C(C)C)NC(=O)CNC(=O)[C@H](CC(C)C)NC(=O)[C@@H](N)CSSC[C@@H](C(=O)O)NC(=O)[C@@H]2CCCN2C(=O)[C@H](CCCCN)NC(=O)CNC1=O [C L G V L G K P C] (H-CLGVLGKPC-OH; disulfide 1-9) | 550 µg/mL |
| CC(C)C[C@@H]1NC(=O)[C@H](C(C)C)NC(=O)CNC(=O)[C@H](CC(C)C)NC(=O)[C@@H](N)CSSC[C@@H](C(=O)O)NC(=O)C(C)(C)NC(=O)[C@H](CCCCN)NC(=O)CNC1=O [C L G V L G K aiB C] (H-CLGVLGK[Aib]C-OH; disulfide 1-9) | >470 µg/mL |
| CC(C)C[C@@H]1NC(=O)[C@H](C(C)C)NC(=O)CNC(=O)[C@H](CC(C)C)NC(=O)[C@@H](N)CSSC[C@@H](C(=O)O)NC(=O)[C@@H](CC(C)C)NC(=O)[C@H](CCCCN)NC(=O)CNC1=O [C L G V L G K dL C] (H-CLGVLGK[dL]C-OH; disulfide 1-9) | 140 µg/mL |
| CC(C)C[C@@H]1NC(=O)[C@H](C(C)C)NC(=O)CNC(=O)[C@H](CC(C)C)NC(=O)[C@@H](N)CSSC[C@@H](C(=O)O)NC(=O)[C@H](CC(C)C)N(C)C(=O)[C@H](CCCCN)NC(=O)CNC1=O [C L G V L G K nL C] (H-CLGVLGK[NMeL]C-OH; disulfide 1-9) | 240 µg/mL |
| CC(C)C[C@@H]1NC(=O)[C@H](C(C)C)NC(=O)CNC(=O)[C@H](CC(C)C)NC(=O)[C@@H](N)CSSC[C@@H](C(=O)O)NC(=O)[C@H](c2ccccc2)NC(=O)[C@H](CCCCN)NC(=O)CNC1=O [C L G V L G K pG C] (H-CLGVLGK[Phg]C-OH; disulfide 1-9) | 80 µg/mL |
| CC(C)C[C@@H]1NC(=O)[C@H](CCCN)NC(=O)CNC(=O)[C@H](CC(C)C)NC(=O)[C@H](C(C)C)NC(=O)CNC(=O)[C@H](CC(C)C)NC(=O)[C@@H](N)CSSC[C@@H](C(=O)O)NC1=O [C L G V L G Or L C] (H-CLGVLG[Orn]LC-OH; disulfide 1-9) | 40 µg/mL |
| CC(C)C[C@@H]1NC(=O)[C@H](C(C)C)NC(=O)CNC(=O)[C@H](CC(C)C)NC(=O)[C@@H](N)CSSC[C@@H](C(=O)O)NC(=O)[C@H](CC(C)C)NC(=O)[C@@H]2CCCN2C(=O)CNC1=O [C L G V L G P L C] (H-CLGVLGPLC-OH; disulfide 1-9) | 160 µg/mL |
| CC(C)C[C@@H]1NC(=O)[C@H](CCCNC(=N)N)NC(=O)CNC(=O)[C@H](CC(C)C)NC(=O)[C@H](C(C)C)NC(=O)CNC(=O)[C@H](CC(C)C)NC(=O)[C@@H](N)CSSC[C@@H](C(=O)O)NC1=O [C L G V L G R L C] (H-CLGVLGRLC-OH; disulfide 1-9) | 160 µg/mL |
| CC(C)C[C@@H]1NC(=O)[C@H](C(C)C)NC(=O)CNC(=O)[C@H](CC(C)C)NC(=O)[C@@H](N)CSSC[C@@H](C(=O)O)NC(=O)[C@H](CC(C)C)NC(=O)C(C)(C)NC(=O)CNC1=O [C L G V L G aiB L C] (H-CLGVLG[Aib]LC-OH; disulfide 1-9) | 460 µg/mL |
| CC(C)C[C@@H]1NC(=O)[C@H](C(C)C)NC(=O)CNC(=O)[C@H](CC(C)C)NC(=O)[C@@H](N)CSSC[C@@H](C(=O)O)NC(=O)[C@H](CC(C)C)NC(=O)[C@@H](CCCCN)NC(=O)CNC1=O [C L G V L G dK L C] (H-CLGVLG[dK]LC-OH; disulfide 1-9) | 170 µg/mL |
| CC(C)C[C@@H]1NC(=O)[C@H](C(C)C)NC(=O)CNC(=O)[C@H](CC(C)C)NC(=O)[C@@H](N)CSSC[C@@H](C(=O)O)NC(=O)[C@@H](CC(C)C)NC(=O)[C@@H](CCCCN)NC(=O)CNC1=O [C L G V L G dK dL C] (H-CLGVLG[dK][dL]C-OH; disulfide 1-9) | 150 µg/mL |
| CC(C)C[C@@H]1NC(=O)[C@H](C(C)C)NC(=O)CNC(=O)[C@H](CC(C)C)NC(=O)[C@@H](N)CSSC[C@@H](C(=O)O)NC(=O)[C@@H](CC(C)C)NC(=O)[C@@H](CC(C)C)NC(=O)CNC1=O [C L G V L G dL dL C] (H-CLGVLG[dL][dL]C-OH; disulfide 1-9) | 140 µg/mL |

From US20040009904A1, “APL immunoreactive peptides, conjugates thereof and methods of treatment for aPL antibody-mediated pathologies” (priority 1995, published 2004)
